According to patent publication US11130780B2, “Inhibitors of growth factor activation enzymes” (Washington University, priority 2015, dated 2021):
Read-outs that look alike come from different tables or passages of the source.

Columns and labels:
Type in all cases: biochemical
[1] = molecular target: T1, HGFA (Homo sapiens, UniProt Q04756); test: Fluorescent kinetic enzyme inhibitor assay of HGFA
T1 construct: His6 tag (N); seven amino acid spacer and seven amino acid TEV cleavage site (N); Honey Bee melittin signal peptide (N); made in house; host or cells: High 5 insect cells (baculovirus; virus raised in Sf9)
T1 sequence (Q04756 373-655): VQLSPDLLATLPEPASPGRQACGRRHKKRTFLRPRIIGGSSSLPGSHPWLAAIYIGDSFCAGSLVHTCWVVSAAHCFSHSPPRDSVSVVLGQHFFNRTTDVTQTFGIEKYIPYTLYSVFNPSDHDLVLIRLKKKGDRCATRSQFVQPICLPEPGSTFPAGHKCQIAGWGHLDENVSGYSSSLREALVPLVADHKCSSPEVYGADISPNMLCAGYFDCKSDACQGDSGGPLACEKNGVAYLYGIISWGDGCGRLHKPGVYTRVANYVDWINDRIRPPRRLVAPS
Summary of the method: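 Recombinant His-tagged HGFA residues 373-655 from insect cells, with substrate at Km. Inhibitors in 11-point dilutions, 0-20 μM final, 2% DMSO, fluorescence (ex 380/em 460 nm) followed over time at room temperature. IC50 from four-parameter fit of mean velocity, average of three experiments.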

[2] = molecular target: T2, matriptase (Homo sapiens, UniProt Q9Y5Y6); test: Fluorescent kinetic enzyme inhibitor assay of matriptase; conditions: for IC50: Table 4.1; for Ki: Table 4.2, Boc-QAR-AMC substrate
T2 construct: Charles Craik, UCSF (obtained from another laboratory)
T2 sequence (Q9Y5Y6 615-855 limits assumed): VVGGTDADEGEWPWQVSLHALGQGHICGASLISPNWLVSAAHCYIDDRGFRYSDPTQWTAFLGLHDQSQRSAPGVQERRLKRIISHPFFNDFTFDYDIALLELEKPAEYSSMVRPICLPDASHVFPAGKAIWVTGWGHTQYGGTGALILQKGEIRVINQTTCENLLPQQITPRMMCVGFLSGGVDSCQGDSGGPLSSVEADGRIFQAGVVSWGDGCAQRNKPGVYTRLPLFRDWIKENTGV
Summary of the method: (§1)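 Fluorescence (ex 380/em 460 nm) followed kinetically at room temperature; IC50 from four-parameter fit of mean velocity versus concentration, averaged over three experiments.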

[3] = molecular target: T3, hepsin (Homo sapiens, UniProt P05981); test: Fluorescent kinetic enzyme inhibitor assay of hepsin; conditions: for IC50: Table 4.1
T3 construct: purchased R&D Systems 4776-SE-010
T3 sequence (P05981 163-417 limits assumed): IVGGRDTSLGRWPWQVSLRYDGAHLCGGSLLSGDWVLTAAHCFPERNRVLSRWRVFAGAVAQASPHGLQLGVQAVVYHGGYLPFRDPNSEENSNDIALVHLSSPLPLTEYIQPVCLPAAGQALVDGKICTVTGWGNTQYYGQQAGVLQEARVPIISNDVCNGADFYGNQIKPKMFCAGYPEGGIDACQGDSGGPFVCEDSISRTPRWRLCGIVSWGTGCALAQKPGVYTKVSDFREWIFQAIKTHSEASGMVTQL
T3 sequence (P05981 45-162 partner limits assumed): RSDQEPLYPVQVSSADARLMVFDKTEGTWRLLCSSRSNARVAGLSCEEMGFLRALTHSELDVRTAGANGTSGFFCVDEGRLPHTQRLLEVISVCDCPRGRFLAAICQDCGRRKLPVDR
Summary of the method: as §1

[4] = molecular target: Factor Xa (Homo sapiens, UniProt P00742); test: Chromogenic kinetic enzyme assay of Factor Xa; conditions: Table 4.1; read-out: Factor Xa Ki
Chain of Factor Xa (P00742 235-488 limits assumed): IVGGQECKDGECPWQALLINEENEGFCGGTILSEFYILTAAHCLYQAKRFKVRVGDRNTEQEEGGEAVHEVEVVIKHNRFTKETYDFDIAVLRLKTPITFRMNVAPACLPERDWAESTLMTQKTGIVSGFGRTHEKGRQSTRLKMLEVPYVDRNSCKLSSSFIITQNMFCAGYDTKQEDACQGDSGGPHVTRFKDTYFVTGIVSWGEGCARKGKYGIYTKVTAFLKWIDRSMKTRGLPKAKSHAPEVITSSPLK
Chain of Factor Xa (P00742 41-179 partner limits assumed): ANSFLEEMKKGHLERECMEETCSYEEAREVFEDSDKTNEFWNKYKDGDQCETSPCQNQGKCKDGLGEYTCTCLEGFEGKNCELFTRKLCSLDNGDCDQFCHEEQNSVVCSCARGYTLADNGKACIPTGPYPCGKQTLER
Description: Inhibitors (11-pt serial dilutions, 0-20 μM final concentration) were serially diluted in DMSO (2% DMSO final concentration) and then mixed with recombinant thrombin (0.15 nM final concentration) or Factor Xa (0.35 nM final concentration) in TNC buffer (25 mM Tris, 150 mM NaCl, 5 mM CaCl2, 0.01% TRITON X-100, pH 8) using clear 384 well plates. […] Changes in absorbance at 405 nm were measured over time in a Biotek Synergy 2 plate (Winnoski, Vt.). Using GraphPad Prism version 6.04 software program, (GraphPad Software, San Diego, Calif., www.graphpad.com), a four parameter curve fit was used to determine the inhibitor IC50s from a plot of the mean reaction velocity versus the inhibitor concentration. Ki values were calculated from the IC50 values using the Cheng and Prusoff equation (Ki=IC50/(1+[S]/Km).

[5] = Table 4.2, Boc-QLR-AMC substrate, read-out: HGFA Ki
[6] = Table 4.2, Boc-QAR-AMC substrate, read-out: Hepsin Ki

Ki [1, 5] [nM]	IC50 [2] [nM]	IC50 [3] [nM]	Ki [4] [nM]	Ki ([1]; read-out: Ki for HGFA) [nM]	fold more potent for matriptase versus HGFA [2]	fold more potent for hepsin versus HGFA [3] [fold]	Ki [3, 6] [nM]	Ki ([3]; read-out: Ki for hepsin) [nM]	Ki [2] [nM]	Structure (SMILES)	selectivity among HGFA, matriptase and hepsin [1]
60	1	1	8.1	–	–	–	–	–	–	CC(=O)N[C@@H](CCCNC(=N)N)C(=O)N[C@@H](CCC(N)=O)C(=O)N[C@@H](CC(C)C)C(=O)N[C@@H](CCCNC(=N)N)C(=O)c1nccs1 [Compound 5e, Ac-RQLR(SEQ ID NO: 6)-kt]	–
63	175	9	759	66	–	–	–	1.2	–	CC(=O)N[C@@H](CO)C(=O)N[C@@H](Cc1c[nH]c2ccccc12)C(=O)N[C@@H](CC(C)C)C(=O)N[C@@H](CCCNC(=N)N)C(=O)c1nccs1 [Compound 6g, Ac-SWLR(SEQ ID NO: 17)-kt]	HGFA selectivity over both hepsin and matriptase
12	14	5	–	–	–	–	–	–	–	CC(=O)N[C@@H](CCCCN)C(=O)N[C@@H](CCCNC(=N)N)C(=O)N[C@@H](CC(C)C)C(=O)N[C@@H](CCCNC(=N)N)C(=O)c1nccs1 [Compound 5g, Ac-KRLR(SEQ ID NO: 8)-kt]	–
24	24	5	–	–	–	–	–	–	–	CC(=O)N[C@@H](CO)C(=O)N[C@@H](CCCNC(=N)N)C(=O)N[C@@H](CC(C)C)C(=O)N[C@@H](CCCNC(=N)N)C(=O)c1nccs1 [Compound 6e, Ac-SRLR(SEQ ID NO: 15)-kt]	HGFA selectivity over both hepsin and matriptase
57	34	51	530	–	–	–	–	–	–	CC(=O)N[C@@H](CO)C(=O)N[C@@H](CCCCN)C(=O)N[C@@H](Cc1ccccc1)C(=O)N[C@@H](CCCNC(=N)N)C(=O)c1nccs1 [Compound 6c, Ac-SKFR(SEQ ID NO: 13)-kt]	HGFA selectivity over both hepsin and matriptase
21	31	0.3	–	–	–	–	0.21	–	–	CC(=O)N[C@@H](Cc1c[nH]c2ccccc12)C(=O)N[C@@H](CCCNC(=N)N)C(=O)N[C@@H](CC(C)C)C(=O)N[C@@H](CCCNC(=N)N)C(=O)c1nccs1 [Compound 5h, Ac-WRLR(SEQ ID NO: 9)-kt]	–
58	–	–	78.8	–	–	–	0.58	–	0.69	CC(=O)N[C@@H](CCCCN)C(=O)N[C@@H](CCC(N)=O)C(=O)N[C@@H](Cc1ccccc1)C(=O)N[C@@H](CCCNC(=N)N)C(=O)c1nccs1 [Compound 5c, Ac-KQFR(SEQ ID NO: 4)-kt]	–

Further lines, the compound ahead of its results:

Structure (SMILES)	Ki [1, 5] [nM]	IC50 [2] [nM]	IC50 [3] [nM]	Ki [4] [nM]	Ki ([1]; read-out: Ki for HGFA) [nM]	fold more potent for matriptase versus HGFA [2]	fold more potent for hepsin versus HGFA [3] [fold]	Ki [3, 6] [nM]	Ki ([3]; read-out: Ki for hepsin) [nM]	Ki [2] [nM]	selectivity among HGFA, matriptase and hepsin [1]
CC(=O)N[C@@H](CO)C(=O)N[C@@H](CCCCN)C(=O)N[C@@H](CC(C)C)C(=O)N[C@@H](CCCNC(=N)N)C(=O)c1nccs1 [Compound 6, Ac-SKLR(SEQ ID NO: 10)-kt]	–	48	–	3060	81	only slightly more potent	70	1.2	–	–	–
N=C(N)c1ccc2cc(OC(=O)c3ccc(N=C(N)N)cc3)ccc2c1 [Nafamostat, reference compound]	25	–	2	–	–	–	–	0.53	–	–	–
CC(=O)N[C@@H](CCCCN)C(=O)N[C@@H](CCC(N)=O)C(=O)N[C@@H](CC(C)C)C(=O)N[C@@H](CCCNC(=N)N)C(=O)c1nccs1 [Compound 5, Ac-KQLR(SEQ ID NO: 1)-kt]	70	5	2	170	53	50 fold	200	0.19	–	1.6	–
